In patent US20250368649A1, “TETRAHYDROPYRIDOPYRIMIDINE PAN-KRAS INHIBITORS” (Mirati Therapeutics, Inc., priority 2022, published 2025):

Columns and labels:
KRas G12A = KRas G12A (Homo sapiens, UniProt P01116, G12A); format: binding; conditions: single point, 10 nM compound, read-out: Binding to KRas (% inhibition at 10 nM) G12A
H460 cells = experiment: Inhibition of KRas-mediated phosphorylation of ERK (Cisbio HTRF pERK), H460 cells; format: cell-based; conditions: Homo sapiens; for IC50: NCI-H460, 3 h, 3 hr compound incubation, Cisbio pERK HTRF; for inhibition at 0.1 µM: NCI-H460, single point at 100 nM, 3 hrs compound incubation
HCT116 cells = experiment: Inhibition of KRas-mediated phosphorylation of ERK (Cisbio HTRF pERK), HCT116 cells; format: cell-based; conditions: Homo sapiens; for IC50: HCT-116, 3 h, 3 hr compound incubation, Cisbio pERK HTRF; for inhibition at 0.1 µM: HCT-116, single point at 100 nM, 3 hrs compound incubation
MKN1 cells = experiment: Inhibition of KRas-mediated phosphorylation of ERK (Cisbio HTRF pERK), MKN1 cells; format: cell-based; conditions: Homo sapiens, MKN-1, 3 hour compound incubation, Cisbio pERK HTRF
Method in brief: (§1)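 Growth medium is RPMI with 10% FBS, and each well receives 6,000 cells on the first day of the protocol.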

KRas G12C = KRas G12C (Homo sapiens, UniProt P01116, G12C); format: binding; conditions: single point, 10 nM compound, read-out: Binding to KRas (% inhibition at 10 nM) G12C
H358 cells = experiment: Inhibition of KRas-mediated phosphorylation of ERK (Cisbio HTRF pERK), H358 cells; format: cell-based; conditions: Homo sapiens; for IC50: NCI-H358, 3 h, 3 hr compound incubation, Cisbio pERK HTRF; for inhibition at 0.1 µM: NCI-H358, single point at 100 nM, 3 hrs compound incubation
H727 cells = experiment: Inhibition of KRas-mediated phosphorylation of ERK (Cisbio HTRF pERK), H727 cells; format: cell-based; conditions: Homo sapiens; for IC50: NCI-H727, 3 h, 3 hr compound incubation, Cisbio pERK HTRF
KRas G13D = KRas G13D (Homo sapiens, UniProt P01116, G13D); format: binding; conditions: single point, 10 nM compound, read-out: Binding to KRas (% inhibition at 10 nM) G13D
KRas G12D = KRas G12D (Homo sapiens, UniProt P01116, G12D); experiment: biochemical; conditions: Binding to KRas (IC50 nM) G12D, TR-FRET displacement, KRas G12D
KRas G12S = KRas G12S (Homo sapiens, UniProt P01116, G12S); format: binding; conditions: single point, 10 nM compound, read-out: Binding to KRas (% inhibition at 10 nM) G12S
PSN1 cells = experiment: Inhibition of KRas-mediated phosphorylation of ERK (Cisbio HTRF pERK), PSN1 cells; format: cell-based; conditions: Homo sapiens, PSN1, 3 h, 3 hour compound incubation, Cisbio pERK HTRF
Method in brief: as §1

KRas Q61H = KRas Q61H (Homo sapiens, UniProt P01116, Q61H); experiment: KRas binding assay (TR-FRET displacement), KRas Q61H; conditions: single point, 10 nM compound
KRas G12V = KRas G12V (Homo sapiens, UniProt P01116, G12V); experiment: biochemical; conditions: Binding to KRas (IC50 nM) G12V, TR-FRET displacement, KRas G12V
KRas WT = KRas WT (Homo sapiens, UniProt P01116); experiment: KRas binding assay (TR-FRET displacement), KRas WT; conditions: single point, 10 nM compound
ASPC1 cells = experiment: Inhibition of KRas-mediated phosphorylation of ERK (Cisbio HTRF pERK), ASPC1 cells; format: cell-based; conditions: Homo sapiens, AsPC-1 cells; for IC50: ASPC1, 3 h, 3 hr compound incubation, Cisbio pERK HTRF
A549 cells = experiment: Inhibition of KRas-mediated phosphorylation of ERK (Cisbio HTRF pERK), A549 cells; format: cell-based; conditions: Homo sapiens; for IC50: A549, 3 h, 3 hr compound incubation, Cisbio pERK HTRF; for inhibition at 0.1 µM: single point at 100 nM, 3 hrs compound incubation
KRas G12R = KRas G12R (Homo sapiens, UniProt P01116, G12R); experiment: biochemical; conditions: Binding to KRas (IC50 nM) G12R, TR-FRET displacement, KRas G12R
Sequence of KRas G12R (P01116 1-169 isoform P01116-2 G12R): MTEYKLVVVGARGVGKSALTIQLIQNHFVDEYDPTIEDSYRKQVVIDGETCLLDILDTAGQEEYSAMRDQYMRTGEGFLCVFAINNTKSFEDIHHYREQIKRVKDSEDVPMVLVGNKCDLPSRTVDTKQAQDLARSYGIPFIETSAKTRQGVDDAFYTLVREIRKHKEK

Sequence of KRas G13D (P01116 1-169 isoform P01116-2 G13D): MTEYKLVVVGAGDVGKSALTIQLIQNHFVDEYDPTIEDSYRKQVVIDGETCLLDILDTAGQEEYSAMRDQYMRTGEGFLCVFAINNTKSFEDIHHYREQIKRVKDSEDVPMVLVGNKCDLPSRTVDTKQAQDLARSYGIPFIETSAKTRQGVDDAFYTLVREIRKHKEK
Sequence of KRas G12S (P01116 1-169 isoform P01116-2 G12S): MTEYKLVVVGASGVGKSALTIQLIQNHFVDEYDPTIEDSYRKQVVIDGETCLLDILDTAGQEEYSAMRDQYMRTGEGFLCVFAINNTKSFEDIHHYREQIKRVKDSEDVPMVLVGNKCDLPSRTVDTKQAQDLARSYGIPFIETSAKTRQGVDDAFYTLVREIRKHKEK
Sequence of KRas G12C (P01116 1-169 isoform P01116-2 G12C): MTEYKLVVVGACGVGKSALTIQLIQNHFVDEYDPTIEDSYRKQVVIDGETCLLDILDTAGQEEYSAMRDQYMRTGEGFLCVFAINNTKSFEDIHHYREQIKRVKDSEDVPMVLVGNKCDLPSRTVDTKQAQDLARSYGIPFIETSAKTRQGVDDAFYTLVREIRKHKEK
Sequence of KRas WT (P01116 1-169 isoform P01116-2): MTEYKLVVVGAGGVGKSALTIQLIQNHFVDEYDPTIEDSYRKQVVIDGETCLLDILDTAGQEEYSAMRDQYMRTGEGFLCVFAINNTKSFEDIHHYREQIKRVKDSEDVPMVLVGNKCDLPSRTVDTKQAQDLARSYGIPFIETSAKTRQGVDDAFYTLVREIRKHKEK
Sequence of KRas G12V (P01116 1-169 isoform P01116-2 G12V): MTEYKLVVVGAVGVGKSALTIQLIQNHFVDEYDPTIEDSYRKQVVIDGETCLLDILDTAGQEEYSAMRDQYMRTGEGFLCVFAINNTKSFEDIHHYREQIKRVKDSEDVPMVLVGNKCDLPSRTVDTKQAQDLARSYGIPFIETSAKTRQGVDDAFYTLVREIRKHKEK
Sequence of KRas Q61H (P01116 1-169 isoform P01116-2 Q61H): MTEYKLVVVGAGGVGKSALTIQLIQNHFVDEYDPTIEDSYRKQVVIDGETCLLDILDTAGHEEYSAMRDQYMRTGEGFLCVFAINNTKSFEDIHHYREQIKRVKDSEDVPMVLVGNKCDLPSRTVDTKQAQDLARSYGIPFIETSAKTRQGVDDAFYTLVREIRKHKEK
Sequence of KRas G12A (P01116 1-169 isoform P01116-2 G12A): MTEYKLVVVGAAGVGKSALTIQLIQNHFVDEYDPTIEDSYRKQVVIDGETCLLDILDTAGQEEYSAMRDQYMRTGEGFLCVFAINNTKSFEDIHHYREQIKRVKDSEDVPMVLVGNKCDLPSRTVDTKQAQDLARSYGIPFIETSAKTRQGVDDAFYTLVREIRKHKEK
Sequence of KRas G12D (P01116 1-169 isoform P01116-2 G12D): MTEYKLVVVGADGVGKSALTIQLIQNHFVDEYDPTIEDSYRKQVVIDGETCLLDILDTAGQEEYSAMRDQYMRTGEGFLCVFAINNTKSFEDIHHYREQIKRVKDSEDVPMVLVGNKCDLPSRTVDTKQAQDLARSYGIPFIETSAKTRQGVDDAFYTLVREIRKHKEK

SMILES | inhibition at 0.01 µM (KRas G12A) [%] | IC50 (H460 cells) [nM] | IC50 (HCT116 cells) [nM] | IC50 (MKN1 cells) [nM] | inhibition at 0.01 µM (KRas G12C) [%] | IC50 (H358 cells) [nM] | IC50 (H727 cells) [nM] | inhibition at 0.01 µM (KRas G13D) [%] | IC50 (KRas G12D) [nM] | inhibition at 0.01 µM (KRas G12S) [%] | IC50 (PSN1 cells) [nM] | inhibition at 0.01 µM (KRas Q61H) [%] | IC50 (KRas G12V) [nM] | inhibition at 0.01 µM (KRas WT) [%] | IC50 (ASPC1 cells) [nM] | IC50 (KRas G12R) [nM] | inhibition at 0.1 µM (H460 cells) [%] | inhibition at 0.1 µM (HCT116 cells) [%] | inhibition at 0.1 µM (H358 cells) [%] | inhibition at 0.1 µM (A549 cells) [%] | further results
CCc1c(F)ccc2cc(O)cc(N3CCc4c(nc(OC[C@@]56CCCN5C[C@H](F)C6)nc4N4CCCn5nc(C(=O)N(C)C6CC6)c(C)c5C4)C3)c12 [Example 292, N-cyclopropyl-5-(7-(8-ethyl-7-fluoro-3-hydroxynaphthalen-1-yl)-2-(((2R,7aS)-2-fluorohexahydro-1H-pyrrolizin-7a-yl)methoxy)-5,6,7,8-tetrahydropyrido[3,4-d]pyrimidin-4-yl)-N,3-dimethyl-5,6,7,8-tetrahydro-4H-pyrazolo[1,5-a][1,4]diazepine-2-carboxamide] | 98 | 17 | 40 | 2 | 100 | 1 | 5 | 98 | < 2 | 99 | 2230 | 100 | < 2 | 99 | 2 | < 2 | 93 | 75 | 100 | 98 | IC50 (A549 cells): 8 nM
CCc1c(F)ccc2cc(O)cc(N3CCc4c(nc(OC[C@@]56CCCN5C[C@H](F)C6)nc4N4CCCn5nc(C(=O)NC6CC6)c(C)c5C4)C3)c12 [Example 293, N-cyclopropyl-5-(7-(8-ethyl-7-fluoro-3-hydroxynaphthalen-1-yl)-2-(((2R,7aS)-2-fluorohexahydro-1H-pyrrolizin-7a-yl)methoxy)-5,6,7,8-tetrahydropyrido[3,4-d]pyrimidin-4-yl)-3-methyl-5,6,7,8-tetrahydro-4H-pyrazolo[1,5-a][1,4]diazepine-2-carboxamide] | 95 | 48 | 224 | 15.9 | 99 | 3 | 8 | 91 | < 2 | 99 | 6010 | 92 | < 2 | 92 | 3 | < 2 | 66 | 40 | 95 | 86 | IC50 (A549 cells): 18 nM
CCc1c(F)ccc2cc(O)cc(N3CCc4c(nc(OC[C@@]56CCCN5C[C@H](F)C6)nc4N4CCCn5nc(C(=O)N(C)C)c(C6CC6)c5C4)C3)c12 [Example 294, 3-cyclopropyl-5-(7-(8-ethyl-7-fluoro-3-hydroxynaphthalen-1-yl)-2-(((2R,7aS)-2-fluorohexahydro-1H-pyrrolizin-7a-yl)methoxy)-5,6,7,8-tetrahydropyrido[3,4-d]pyrimidin-4-yl)-N,N-dimethyl-5,6,7,8-tetrahydro-4H-pyrazolo[1,5-a][1,4]diazepine-2-carboxamide] | 98 | 15 | 41 | 4 | 100 | 2 | 10 | 98 | < 2 | 100 | 3800 | 98 | < 2 | 98 | 4 | < 2 | 90 | 72 | 100 | 82 | IC50 (A549 cells): 7 nM

Continued, in another order:

inhibition at 0.01 µM (KRas G12A) [%] | IC50 (H460 cells) [nM] | IC50 (HCT116 cells) [nM] | IC50 (MKN1 cells) [nM] | inhibition at 0.01 µM (KRas G12C) [%] | IC50 (H358 cells) [nM] | IC50 (H727 cells) [nM] | inhibition at 0.01 µM (KRas G13D) [%] | IC50 (KRas G12D) [nM] | inhibition at 0.01 µM (KRas G12S) [%] | IC50 (PSN1 cells) [nM] | inhibition at 0.01 µM (KRas Q61H) [%] | IC50 (KRas G12V) [nM] | inhibition at 0.01 µM (KRas WT) [%] | IC50 (ASPC1 cells) [nM] | IC50 (KRas G12R) [nM] | SMILES | inhibition at 0.1 µM (H460 cells) [%] | inhibition at 0.1 µM (HCT116 cells) [%] | inhibition at 0.1 µM (H358 cells) [%] | inhibition at 0.1 µM (A549 cells) [%] | further results
99 |  |  | 3.5 | 99 |  | 23 | 98 | < 2 | 99 | > 10000 | 98 | < 2 | 99 | 20 | < 2 | CCc1c(F)ccc2cc(O)cc(N3CCc4c(nc(OC[C@@]56CCCN5C[C@H](F)C6)nc4N4CCCn5nc(C(=O)N(C)C)c(C(C)C)c5C4)C3)c12 [Example 295, 5-(7-(8-ethyl-7-fluoro-3-hydroxynaphthalen-1-yl)-2-(((2R,7aS)-2-fluorohexahydro-1H-pyrrolizin-7a-yl)methoxy)-5,6,7,8-tetrahydropyrido[3,4-d]pyrimidin-4-yl)-3-isopropyl-N,N-dimethyl-5,6,7,8-tetrahydro-4H-pyrazolo[1,5-a][1,4]diazepine-2-carboxamide] | 84 | 63 | 97 | 60 | 
94 | 38 | 118 | 8.9 | 98 | 5 | 20 | 93 | < 2 | 98 | 6580 | 93 | < 2 | 93 | 4 | < 2 | CCc1c(F)ccc2cc(O)cc(N3CCc4c(nc(OC[C@@]56CCCN5C[C@H](F)C6)nc4N4CCCn5nc(N)c(Br)c5C4)C3)c12 [Example 296, 4-(4-(2-amino-3-bromo-7,8-dihydro-4H-pyrazolo[1,5-a][1,4]diazepin-5(6H)-yl)-2-(((2R,7aS)-2-fluorohexahydro-1H-pyrrolizin-7a-yl)methoxy)-5,6-dihydropyrido[3,4-d]pyrimidin-7(8H)-yl)-5-ethyl-6-fluoronaphthalen-2-ol] | 78 | 51 | 98 | 86 | inhibition at 0.1 µM (H727 cells; NCI-H727, single point at 100 nM, 3 hrs compound incubation): 67%; inhibition at 0.1 µM (ASPC1 cells; ASPC1, single point at 100 nM, 3 hrs compound incubation): 94%; IC50 (A549 cells): 12 nM
89 |  |  | 12.9 | 99 |  | 6 | 91 | < 2 | 97 | 655 | 94 | < 2 | 89 | 12 | < 2 | CCNC(=O)c1cc2n(n1)CCCCN(c1nc(OC[C@@]34CCCN3C[C@H](F)C4)nc3c1CCN(c1cc(O)cc4ccc(F)c(CC)c14)C3)C2 [Example 301, N-ethyl-5-(7-(8-ethyl-7-fluoro-3-hydroxynaphthalen-1-yl)-2-(((2R,7aS)-2-fluorotetrahydro-1H-pyrrolizin-7a(5H)-yl)methoxy)-5,6,7,8-tetrahydropyrido[3,4-d]pyrimidin-4-yl)-4,5,6,7,8,9-hexahydropyrazolo[1,5-a][1,4]diazocine-2-carboxamide] | 54 | 34 | 102 | 85 | 
